Active and inactive are the calls of the source.
Tests used:
Cytochrome P450 2C9 = Cytochrome P450 2C9 (Homo sapiens, UniProt P11712)
Large T antigen = Large T antigen (Simian virus 40, UniProt P03070); assay type: functional, Betapolyomavirus macacae;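 also: Confirmatory-stage PubChem screen for compounds that inhibit SV40 T antigen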
Genome polyprotein [1] = molecular target: Genome polyprotein (dengue virus type 2, UniProt P29990); assay: Dengue-2 NS5 methyltransferase inhibitors, primary screen, biochemical, confirmation dose response (AID 588689); assay type: functional
[2] = HepG2 cell cytotoxicity, dose response, cytotoxicity control for Shn3 inhibitor project, CellTiter-Glo, cherry-picked (AID 624134); assay type: functional, cell-based
[3] = test system: Streptococcus sp. 'group A'; assay: growth inhibition of control SK(-) GAS strain, dose response, counter-screen for streptokinase expression inhibitor project, luminescence, kanamycin, BacTiterGlo, confirmation (AID 1900); assay type: functional, organism-based
[4] = THP-1 cell cytotoxicity, dose response, cytotoxicity control for Vif-APOBEC3G degradation inhibitor project, THP-1 cells (AID 1117359); assay type: functional; conditions: Human immunodeficiency virus 1, THP-1
Beta-galactosidase = Beta-galactosidase (Escherichia coli, UniProt Q8VNN2); assay: PubChem AID 485352; assay type: functional
Beta-galactosidase, sequence (Q8VNN2 whole entry): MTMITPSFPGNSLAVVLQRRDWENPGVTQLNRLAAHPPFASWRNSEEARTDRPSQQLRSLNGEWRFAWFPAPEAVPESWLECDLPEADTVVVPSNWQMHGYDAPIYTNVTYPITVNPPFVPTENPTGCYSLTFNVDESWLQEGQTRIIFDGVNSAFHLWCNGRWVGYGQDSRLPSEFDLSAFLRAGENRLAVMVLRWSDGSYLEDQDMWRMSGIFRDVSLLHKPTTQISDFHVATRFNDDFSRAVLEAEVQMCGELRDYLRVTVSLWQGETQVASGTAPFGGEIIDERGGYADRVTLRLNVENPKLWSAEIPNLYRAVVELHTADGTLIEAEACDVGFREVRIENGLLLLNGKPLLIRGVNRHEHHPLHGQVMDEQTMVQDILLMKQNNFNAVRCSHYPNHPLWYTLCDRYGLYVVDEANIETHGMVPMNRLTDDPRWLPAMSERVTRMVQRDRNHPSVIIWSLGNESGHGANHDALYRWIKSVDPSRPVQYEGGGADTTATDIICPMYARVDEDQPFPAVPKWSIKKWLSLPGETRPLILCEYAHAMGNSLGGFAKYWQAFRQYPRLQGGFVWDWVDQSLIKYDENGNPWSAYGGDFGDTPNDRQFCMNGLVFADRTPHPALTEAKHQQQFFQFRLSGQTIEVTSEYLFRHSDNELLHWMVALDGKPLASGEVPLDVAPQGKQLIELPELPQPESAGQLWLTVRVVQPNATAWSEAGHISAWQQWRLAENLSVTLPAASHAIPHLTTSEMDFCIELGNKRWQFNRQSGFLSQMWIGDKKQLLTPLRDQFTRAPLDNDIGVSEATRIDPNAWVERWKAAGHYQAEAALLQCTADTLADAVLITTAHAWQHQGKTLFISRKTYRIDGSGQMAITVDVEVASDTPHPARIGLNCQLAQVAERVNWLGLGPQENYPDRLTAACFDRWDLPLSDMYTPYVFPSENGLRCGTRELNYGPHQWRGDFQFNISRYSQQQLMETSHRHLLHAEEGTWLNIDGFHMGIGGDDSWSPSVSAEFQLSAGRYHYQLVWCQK

[5] = control 3'UTR Renilla luciferase suppression, dose response, counter-screen for Shn3 inhibitor project, cell-based, Clone20-Shn3RL, cherry-picked (AID 624133); assay type: functional
[6] = molecular target: T1, Type-1 angiotensin II receptor (Homo sapiens, UniProt P30556); assay: AT1 receptor antagonists, dose response, selectivity assay for APJ receptor antagonist project, cell-based, uHTS hits (AID 463214); assay type: functional;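 also: antagonist potency against angiotensin II stimulated AT1 response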
T1 sequence (P30556 whole entry): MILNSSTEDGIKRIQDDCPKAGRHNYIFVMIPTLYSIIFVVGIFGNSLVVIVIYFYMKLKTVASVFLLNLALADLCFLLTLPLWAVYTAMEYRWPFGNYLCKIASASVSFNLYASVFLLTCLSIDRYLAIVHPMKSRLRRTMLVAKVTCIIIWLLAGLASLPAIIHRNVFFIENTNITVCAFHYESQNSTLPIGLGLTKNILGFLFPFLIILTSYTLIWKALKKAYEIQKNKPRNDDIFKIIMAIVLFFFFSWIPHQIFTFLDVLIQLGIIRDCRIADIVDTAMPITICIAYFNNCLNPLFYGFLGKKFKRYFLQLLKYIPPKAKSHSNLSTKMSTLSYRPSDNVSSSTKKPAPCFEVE

Streptococcus = assay: Group A Streptococcus viability loss, dose response, counter-screen for streptokinase expression inhibitor project, luminescence, BacTiterGlo (AID 1915); assay type: functional, organism-based;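 also: potency for reduction of bacterial viability or growth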
[7] = molecular target: T2, Replicative DNA helicase DnaB (Mycobacterium tuberculosis, UniProt P9WMR3); assay: DnaB intein splicing inhibitors, dose response, biochemical, cell-free fluorescence (AID 449749); assay type: functional
T2 sequence (P9WMR3 whole entry): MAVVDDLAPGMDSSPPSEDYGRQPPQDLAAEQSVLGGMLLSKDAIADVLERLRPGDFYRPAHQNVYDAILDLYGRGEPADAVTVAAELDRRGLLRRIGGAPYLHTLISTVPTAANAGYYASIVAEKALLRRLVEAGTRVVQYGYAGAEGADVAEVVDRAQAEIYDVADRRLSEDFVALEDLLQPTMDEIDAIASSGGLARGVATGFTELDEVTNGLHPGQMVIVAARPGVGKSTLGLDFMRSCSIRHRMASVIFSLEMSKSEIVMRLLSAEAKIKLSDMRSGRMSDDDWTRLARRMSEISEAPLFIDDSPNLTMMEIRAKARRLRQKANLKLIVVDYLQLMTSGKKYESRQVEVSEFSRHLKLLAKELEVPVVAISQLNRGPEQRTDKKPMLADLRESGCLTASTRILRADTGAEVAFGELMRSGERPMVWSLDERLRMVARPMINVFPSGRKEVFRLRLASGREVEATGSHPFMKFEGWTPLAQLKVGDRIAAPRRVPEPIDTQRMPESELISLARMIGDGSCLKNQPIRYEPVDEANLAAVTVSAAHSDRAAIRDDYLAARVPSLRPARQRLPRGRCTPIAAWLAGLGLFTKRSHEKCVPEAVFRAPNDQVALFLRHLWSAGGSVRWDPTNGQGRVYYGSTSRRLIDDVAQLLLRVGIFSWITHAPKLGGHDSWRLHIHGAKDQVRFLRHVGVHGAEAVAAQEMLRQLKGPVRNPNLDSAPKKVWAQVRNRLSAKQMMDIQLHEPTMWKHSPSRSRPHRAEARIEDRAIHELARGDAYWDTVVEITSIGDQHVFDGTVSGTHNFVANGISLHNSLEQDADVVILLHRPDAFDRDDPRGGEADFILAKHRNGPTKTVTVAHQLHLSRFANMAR

Streptokinase A = molecular target: T3, Streptokinase A (Streptococcus pyogenes serotype M1, UniProt P10520); assay: S. pyogenes streptokinase expression inhibitors, potency, dose response, plasminogen activation absorbance, OD405 (AID 1914); assay type: functional, Streptococcus pyogenes M1 GAS;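 also: secreted streptokinase activity via plasminogen activation per viability signal from cell pellet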
T3 sequence (P10520 whole entry): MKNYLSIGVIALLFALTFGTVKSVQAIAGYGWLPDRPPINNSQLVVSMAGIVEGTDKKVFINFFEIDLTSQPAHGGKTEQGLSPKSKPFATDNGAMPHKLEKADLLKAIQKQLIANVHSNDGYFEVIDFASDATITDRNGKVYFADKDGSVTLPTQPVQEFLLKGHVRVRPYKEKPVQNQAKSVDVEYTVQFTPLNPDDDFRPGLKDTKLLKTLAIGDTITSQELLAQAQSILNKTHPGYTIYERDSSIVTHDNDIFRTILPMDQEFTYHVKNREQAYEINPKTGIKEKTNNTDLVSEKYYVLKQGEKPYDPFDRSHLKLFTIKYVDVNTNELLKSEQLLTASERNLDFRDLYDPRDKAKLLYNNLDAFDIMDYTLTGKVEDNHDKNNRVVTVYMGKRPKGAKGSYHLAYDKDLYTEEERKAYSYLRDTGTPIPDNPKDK

Protein RecA = molecular target: T4, Protein RecA (Mycobacterium tuberculosis, UniProt P9WHJ3); assay: Fluorescence Cell-Free Homogeneous Dose Retest to Identify Inhibitors of RecA-Intein Splicing Activity. [Related pubchem assays (depositor defined):AID2097, AID2223, AID489010, AID492950]; assay type: functional
T4 sequence (P9WHJ3 whole entry): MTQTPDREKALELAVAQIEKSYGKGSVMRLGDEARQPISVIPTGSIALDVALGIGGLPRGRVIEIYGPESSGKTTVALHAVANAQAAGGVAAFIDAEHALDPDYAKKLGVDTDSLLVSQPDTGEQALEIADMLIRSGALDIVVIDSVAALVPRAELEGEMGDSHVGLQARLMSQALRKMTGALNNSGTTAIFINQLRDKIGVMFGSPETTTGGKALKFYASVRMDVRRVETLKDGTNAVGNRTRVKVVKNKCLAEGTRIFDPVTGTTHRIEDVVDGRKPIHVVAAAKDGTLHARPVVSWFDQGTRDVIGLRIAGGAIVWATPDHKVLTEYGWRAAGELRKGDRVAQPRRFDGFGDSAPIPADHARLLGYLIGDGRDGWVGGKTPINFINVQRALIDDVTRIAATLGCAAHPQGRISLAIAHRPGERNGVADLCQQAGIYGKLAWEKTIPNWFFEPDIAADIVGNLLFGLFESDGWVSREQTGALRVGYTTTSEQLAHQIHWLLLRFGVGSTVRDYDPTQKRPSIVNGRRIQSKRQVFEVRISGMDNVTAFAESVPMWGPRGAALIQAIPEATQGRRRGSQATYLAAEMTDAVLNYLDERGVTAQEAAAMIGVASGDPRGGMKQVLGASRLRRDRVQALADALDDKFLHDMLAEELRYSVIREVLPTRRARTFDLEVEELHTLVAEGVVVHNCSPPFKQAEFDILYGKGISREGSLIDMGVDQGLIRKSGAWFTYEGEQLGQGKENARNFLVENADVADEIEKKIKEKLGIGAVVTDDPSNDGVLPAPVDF

[8] = Vero cell cytotoxicity, dose response, cytotoxicity control for Vif-APOBEC3G degradation inhibitor project, Vero cells (AID 1117358); assay type: functional; conditions: Human immunodeficiency virus 1, Vero
CHO = assay: cytotoxicity in TLR9-MyD88 CHO cells, dose response, cytotoxicity control for TLR9-MyD88 binding inhibitor project, cell-based, luminescence (AID 588339); assay type: functional, hamster; conditions: Cricetulus griseus;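 also: CHO cells stably coexpressing TLR9 and MyD88 fusions from primary screen; compound exposure lasted 48 hours before viability readout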
[9] = growth suppression of PTEN-null colon cells, dose response, cell-based, HCT116 PTEN knockout (AID 1047); assay type: functional;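 also: HCT116 colon tumor cells with PTEN knocked out; cells exposed to compound for 60 hours before readout; potency for loss of cell viability measured by luminescence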
Vero = Vero cell cytotoxicity, cytotoxicity control for flavivirus capping enzyme inhibitors (AID 588742); assay type: functional; conditions: Chlorocebus sabaeus
[10] = growth suppression of beta-catenin-knockout colon cells, dose response, cell-based, HCT116, human colon tumor (AID 1045); assay type: functional;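 also: HCT116 colon tumor cells with beta catenin knocked out; cells exposed to compound for 60 hours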
[11] = molecular target: Glucose-6-phosphate 1-dehydrogenase (Homo sapiens, UniProt P11413); assay: human G6PD enzyme inhibitors, dose response, selectivity assay for P. falciparum G6PD inhibitor project, biochemical, fluorescence (AID 504792); assay type: functional
[12] = Shn3 3'UTR reporter inhibitors, dose response, cell-based, Clone20 osteoblasts, firefly luciferase, cherry-picked (AID 624132); assay type: functional;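 also: firefly luciferase luminescence from reporter carrying the Shn3 3'UTR in osteoblasts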
Beta Lactamase = Beta Lactamase (Pseudomonas aeruginosa, UniProt Q932Y6); assay: beta-lactamase reporter inhibitor potency, dose response, artefact control for TLR9-MyD88 binding inhibitor project, BLA reporter cells, FRET fluorescence (AID 588341); assay type: cell-based;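 also: cell based assay in CHO-K1 cells stably expressing beta-lactamase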
Beta Lactamase, sequence (Q932Y6 whole entry): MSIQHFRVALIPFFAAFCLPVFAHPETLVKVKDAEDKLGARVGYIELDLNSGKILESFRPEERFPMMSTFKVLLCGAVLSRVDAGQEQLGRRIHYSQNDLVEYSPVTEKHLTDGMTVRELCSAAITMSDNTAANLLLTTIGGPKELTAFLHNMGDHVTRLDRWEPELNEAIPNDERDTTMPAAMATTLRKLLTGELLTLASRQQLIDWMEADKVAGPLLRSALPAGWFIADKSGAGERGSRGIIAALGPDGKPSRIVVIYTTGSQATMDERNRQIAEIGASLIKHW

[13] = molecular target: Induced myeloid leukemia cell differentiation protein Mcl-1 (Homo sapiens, UniProt Q07820); assay type: functional
Induced myeloid leukemia cell differentiation protein Mcl-1, sequence (Q07820 whole entry): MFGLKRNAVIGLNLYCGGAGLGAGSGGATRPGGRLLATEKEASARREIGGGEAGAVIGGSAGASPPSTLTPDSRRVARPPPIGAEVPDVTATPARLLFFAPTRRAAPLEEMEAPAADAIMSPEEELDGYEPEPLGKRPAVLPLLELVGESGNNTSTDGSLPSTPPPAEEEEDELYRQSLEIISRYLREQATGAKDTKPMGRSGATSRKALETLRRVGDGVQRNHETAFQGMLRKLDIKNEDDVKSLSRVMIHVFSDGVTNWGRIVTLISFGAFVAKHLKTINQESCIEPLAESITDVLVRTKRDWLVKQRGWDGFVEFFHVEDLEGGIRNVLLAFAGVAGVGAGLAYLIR

Major prion protein = Major prion protein (Homo sapiens, UniProt P04156); assay type: functional, cell-based
Genome polyprotein [14] = molecular target: Genome polyprotein (Hepatitis C virus, UniProt Q2Q167); assay: HCV core protein dimerization inhibitors, dose response, biochemical, TR-FRET (AID 2159); design: species or system Hepacivirus hominis;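 also: blocks dimerization of HCV core protein measured by TR-FRET between tagged core106 pairs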
Genome polyprotein (Hepatitis C virus, UniProt Q2Q167), sequence (Q2Q167 whole entry): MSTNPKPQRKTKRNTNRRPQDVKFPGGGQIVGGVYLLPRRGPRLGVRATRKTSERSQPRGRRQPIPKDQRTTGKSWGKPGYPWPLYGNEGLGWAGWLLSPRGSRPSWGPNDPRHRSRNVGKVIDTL

SUMO-activating enzyme [15] = molecular target: T5, SUMO-activating enzyme (Homo sapiens, UniProt Q9UBT2); assay: inhibitors of in vitro SUMOylation cascade, primary screen, biochemical, HTRF, uHTS (AID 2006); assay type: protein-complex assay
T5 sequence (Q9UBE0 whole entry): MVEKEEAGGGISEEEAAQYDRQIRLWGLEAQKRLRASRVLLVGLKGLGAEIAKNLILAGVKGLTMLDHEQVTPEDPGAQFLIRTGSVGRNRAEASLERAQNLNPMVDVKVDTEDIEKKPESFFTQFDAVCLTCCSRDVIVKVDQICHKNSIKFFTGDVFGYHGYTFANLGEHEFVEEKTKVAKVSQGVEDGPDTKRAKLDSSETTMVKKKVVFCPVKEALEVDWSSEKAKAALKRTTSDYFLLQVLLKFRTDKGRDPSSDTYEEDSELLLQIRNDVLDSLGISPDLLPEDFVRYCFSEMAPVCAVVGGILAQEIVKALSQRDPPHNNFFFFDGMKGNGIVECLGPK
T5 sequence (Q9UBT2 whole entry): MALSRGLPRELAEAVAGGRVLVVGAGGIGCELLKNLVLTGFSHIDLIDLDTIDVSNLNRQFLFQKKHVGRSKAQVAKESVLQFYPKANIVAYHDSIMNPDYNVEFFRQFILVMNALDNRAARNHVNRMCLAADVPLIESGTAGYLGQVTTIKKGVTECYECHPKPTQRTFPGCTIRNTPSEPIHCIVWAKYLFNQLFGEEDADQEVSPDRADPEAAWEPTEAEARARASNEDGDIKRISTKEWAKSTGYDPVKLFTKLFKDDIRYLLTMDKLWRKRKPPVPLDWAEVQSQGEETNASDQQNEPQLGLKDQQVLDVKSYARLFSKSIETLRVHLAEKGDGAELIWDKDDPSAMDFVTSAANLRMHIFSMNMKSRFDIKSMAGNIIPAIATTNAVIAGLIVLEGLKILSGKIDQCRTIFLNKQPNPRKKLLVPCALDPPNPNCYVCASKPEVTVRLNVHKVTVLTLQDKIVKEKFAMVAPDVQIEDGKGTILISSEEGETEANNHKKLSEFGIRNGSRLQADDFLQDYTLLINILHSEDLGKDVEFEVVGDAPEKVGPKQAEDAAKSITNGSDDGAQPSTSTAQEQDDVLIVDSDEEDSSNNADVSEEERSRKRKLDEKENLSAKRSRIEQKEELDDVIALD

Protein Tat = Protein Tat (Human immunodeficiency virus type 1 group M subtype B (isolate HXB2)(HIV-1), UniProt P04608); assay type: functional;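 also: tat binding to TAR RNA read out by fluorescence polarization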
Protein Tat, sequence (P04608 whole entry): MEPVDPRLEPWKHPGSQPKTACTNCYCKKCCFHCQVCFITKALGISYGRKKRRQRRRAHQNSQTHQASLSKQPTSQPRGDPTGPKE

SUMO-activating enzyme [16] = molecular target: T5, SUMO-activating enzyme; assay: SUMOylation inhibitor hit validation, confirmation, SUMOylation inhibitor project, biochemical, AlphaScreen (AID 2018); assay type: functional
[17] = molecular target: Mitogen-activated protein kinase 10 (Homo sapiens, UniProt P53779); assay: Dose response biochemical screening assay for inhibitors of c-Jun N-Terminal Kinase 3 (JNK3). [Related pubchem assays: 746 ]
Estrogen receptor beta [18] = molecular target: T6, Estrogen receptor beta (Homo sapiens, UniProt Q92731); assay: ERβ–SRC-3 coactivator interaction inhibitors, confirmation, orthogonal assay, biochemical, ELISA, streptavidin-HRP readout (AID 1060)
T6 sequence (Q92731 whole entry): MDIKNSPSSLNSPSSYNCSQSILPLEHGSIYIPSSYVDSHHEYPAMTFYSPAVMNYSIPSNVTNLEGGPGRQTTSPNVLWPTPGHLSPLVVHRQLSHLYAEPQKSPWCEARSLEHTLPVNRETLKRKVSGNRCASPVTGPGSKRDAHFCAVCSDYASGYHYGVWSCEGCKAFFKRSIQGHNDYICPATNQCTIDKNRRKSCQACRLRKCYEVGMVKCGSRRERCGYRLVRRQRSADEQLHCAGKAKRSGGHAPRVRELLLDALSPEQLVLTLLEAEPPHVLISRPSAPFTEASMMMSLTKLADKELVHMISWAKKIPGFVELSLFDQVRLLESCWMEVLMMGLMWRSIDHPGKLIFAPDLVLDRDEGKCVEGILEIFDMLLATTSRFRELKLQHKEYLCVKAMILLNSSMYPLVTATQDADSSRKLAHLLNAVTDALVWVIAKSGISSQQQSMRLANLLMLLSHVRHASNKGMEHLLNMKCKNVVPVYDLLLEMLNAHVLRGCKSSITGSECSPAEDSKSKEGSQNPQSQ

Estrogen receptor beta [19] = molecular target: T6, Estrogen receptor beta

Large T antigen, sequence (P03070 whole entry): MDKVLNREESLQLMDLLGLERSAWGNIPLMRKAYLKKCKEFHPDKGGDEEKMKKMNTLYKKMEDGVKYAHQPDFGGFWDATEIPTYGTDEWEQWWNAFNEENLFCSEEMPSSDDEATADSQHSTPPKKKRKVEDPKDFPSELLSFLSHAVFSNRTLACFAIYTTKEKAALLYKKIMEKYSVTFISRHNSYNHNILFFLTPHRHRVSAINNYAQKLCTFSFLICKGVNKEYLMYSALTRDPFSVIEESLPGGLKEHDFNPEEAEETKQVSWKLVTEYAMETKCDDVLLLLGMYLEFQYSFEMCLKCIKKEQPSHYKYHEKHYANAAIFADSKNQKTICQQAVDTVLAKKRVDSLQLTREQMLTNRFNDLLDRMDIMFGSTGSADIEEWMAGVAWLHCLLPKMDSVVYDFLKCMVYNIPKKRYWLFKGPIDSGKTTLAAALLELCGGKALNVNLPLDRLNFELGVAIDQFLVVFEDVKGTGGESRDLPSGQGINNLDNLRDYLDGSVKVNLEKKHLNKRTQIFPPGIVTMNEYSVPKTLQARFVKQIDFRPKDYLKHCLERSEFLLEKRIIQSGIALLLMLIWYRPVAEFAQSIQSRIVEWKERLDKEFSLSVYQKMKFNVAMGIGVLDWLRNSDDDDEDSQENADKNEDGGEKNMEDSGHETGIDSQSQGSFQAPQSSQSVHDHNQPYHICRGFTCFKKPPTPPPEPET
Cytochrome P450 2C9, sequence (P11712 whole entry): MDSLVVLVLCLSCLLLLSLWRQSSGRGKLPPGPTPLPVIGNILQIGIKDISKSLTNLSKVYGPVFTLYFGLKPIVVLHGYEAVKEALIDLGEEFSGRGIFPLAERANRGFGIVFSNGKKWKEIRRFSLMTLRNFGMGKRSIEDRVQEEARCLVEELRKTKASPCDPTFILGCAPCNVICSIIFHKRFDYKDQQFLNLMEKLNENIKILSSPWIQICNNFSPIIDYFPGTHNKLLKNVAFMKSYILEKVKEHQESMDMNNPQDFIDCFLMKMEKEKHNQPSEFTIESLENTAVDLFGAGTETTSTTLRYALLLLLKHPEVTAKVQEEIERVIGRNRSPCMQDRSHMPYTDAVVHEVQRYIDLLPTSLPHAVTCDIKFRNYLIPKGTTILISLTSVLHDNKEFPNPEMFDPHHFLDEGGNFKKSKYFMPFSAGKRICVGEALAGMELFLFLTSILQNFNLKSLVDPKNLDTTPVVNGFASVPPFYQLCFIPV

In the case of O=[N+]([O-])c1c(NCCO)cc(Sc2nc3ccccc3s2)c2nonc12, the AC50 (Cytochrome P450 2C9) was 0.631 µM (inconclusive), the IC50 (Large T antigen) was 21.2 µM (active) and the IC50 (Genome polyprotein [1]) was 75.8 µM (active). The AC50 [2] was 32.1 µM (active), the EC50 [3] was 2.73 µM (active) and the CC50 [4] was 22.9 µM (active). The EC50 (Beta-galactosidase) was > 40 µM (inactive), the AC50 [5] was 10.7 µM (active) and the IC50 [6] was 1.9 µM (active). For the same compound, the EC50 (Streptococcus) was 3.39 µM (active), the AC50 [7] was 1.05 µM (active) and the EC50 (Streptokinase A) was > 150 µM (not active). For the same compound, the EC50 (Protein RecA) was 0.722 µM (active), the CC50 [8] was > 40 µM (active) and the IC50 (CHO) was 1.94 µM (active). For the same compound, the EC50 [9] was 11.1 µM (active), the CC50 (Vero) was 32.9 µM (active) and the EC50 [10] was 10.7 µM (active). The IC50 [11] was > 80 µM (inactive), the AC50 [12] was 1.64 µM (active) and the IC50 (Beta Lactamase) was 9.17 µM (active). For the same compound, the IC50 [13] was 11.1 µM (not active).
With CCOC(=O)c1sc(NC(=S)NC(=O)C2CCCC2)cc1C the IC50 (cells) was > 138 µM (inactive), the IC50 (Major prion protein) was 5.29 µM (active) and the IC50 (Genome polyprotein [14]) was > 49.8 µM (not active).
With Cc1ccsc1/C=N/c1ccc(O)cc1 the IC50 (Large T antigen) was 31.2 µM (active), the IC50 (SUMO-activating enzyme [15]) was 9.41 µM (active) and the EC50 (Protein RecA) was > 380 µM (inconclusive). For the same compound, the IC50 (Protein Tat) was 30.5 µM (inconclusive) and the IC50 (SUMO-activating enzyme [16]) was 2.36 µM (active).
For Oc1c2nc3cccc(Cl)c3c-2ncn1Cc1ccncc1, the IC50 [17] was > 93.1 µM (not active).
In the case of c1ccc(Cc2nnc3sc(-c4ccco4)nn23)cc1, the IC50 (Estrogen receptor beta [18]) was 15.2 µM (not active) and the IC50 (Estrogen receptor beta [19]) was 11.4 µM (active).
